Measured values: patent US7153869B2, “Substituted amino acids as erythropoietin mimetics” (priority 1998, dated 2006)
Like-named read-outs stand apart in the source and are kept apart here.

Target: T1, EBP-Ig (N-terminal 225 amino acids of the human EPO receptor joined to an Ig heavy chain) (Homo sapiens, UniProt P19235)
T1 construct: Ig heavy chain (fusion partner); made in house; host or cells: NSO cells (secreted into conditioned media)
T1 sequence (P19235 25-250 limits assumed): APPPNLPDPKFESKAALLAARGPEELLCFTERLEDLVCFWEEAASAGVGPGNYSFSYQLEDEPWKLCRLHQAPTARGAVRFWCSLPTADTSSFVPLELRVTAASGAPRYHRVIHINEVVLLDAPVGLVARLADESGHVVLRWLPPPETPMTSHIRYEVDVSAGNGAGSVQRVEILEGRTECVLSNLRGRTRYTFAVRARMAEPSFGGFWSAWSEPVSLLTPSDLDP
Test: Inhibition of [125I]EPO binding to immobilized EBP-Ig (EPO binding protein-Ig), scintillation Flash plate competition assay
Conditions: for IC30 μM (Inhibition of EPO binding to EBP-Ig): 0–500 μM test compound; for % inh @ 50 μM (Inhibition of EPO binding to EBP-Ig): 50 μM test compound, average % inhibition
Excerpt: The interaction of biotin and streptavidin is frequently employed to capture and effectively immobilize reagents useful in assay protocols and has been employed here as a simple method to capture and immobilize EBP-Ig. EBP-Ig is initially randomly modified with an amine reactive derivative of biotin to produce biotinylated-EBP-Ig. Use of streptavidin coated plates allows the capture of the biotinylated EBP-Ig on the surface of a scintillant impregnated coated well (Flash plates, NEN-DuPont). […] The amount of light produced was quantified to estimate the amount of ligand binding. The specific assay format was suitable for the multi-well plate capacity of a Packard TopCount Microplate Scintillation counter.
Biotinylated EBP-Ig was prepared as follows. EBP-Ig (3 mL, OD280 2.9) was exchanged into 50 mM sodium bicarbonate, pH 8.5 using a Centriprep 10 ultrafiltration device. The final volume of the exchanged protein was 1.2 mL (OD280 2.6, representing about 2 mg total protein). 10 μL of a 4 mg/ml solution of NHS-LC-Biotin (Pierce) was added and the reaction mixture placed on ice in the dark for two hours. Unreacted biotin was removed by exchange of the reaction buffer into PBS in a Centriprep 10 device and the protein reagent aliquoted and stored at −70° C.
All wells were adjusted to a final DMSO concentration of 5%. […] After all additions were made, the plate was covered with an adhesive top seal and placed in the dark at room temperature overnight. The next day all liquid was aspirated from the wells to limit analyte dependent quench of the signal, and the plates were counted on a Packard TOPCOUNT Microplate Scintillation Counter. […] Corrected total binding (CTB) was calculated as: TB−NSB=CTB. […] Table 1 lists the average % inhibition, and if determined the IC50 and IC30 values for compounds of Formula I, where the compound numbers refer to the compounds in the tables accompanying the preparative examples.

[1] = read-out: % inh @ 50 μM (Inhibition of EPO binding to EBP-Ig)
[2] = read-out: EPO/EBP-Ig % inh @ 50 μM, Table 7, 50 μM

| SMILES | IC30 μM (Inhibition of EPO binding to EBP-Ig) (0.5 nM [125I]EPO) | % inh @ 50 μM (Inhibition of EPO binding to EBP-Ig) (0.5 nM [125I]EPO) | EPO/EBP-Ig % inh @ 50 μM (50 μM compound, Table 9) | also measured |
| --- | --- | --- | --- | --- |
| COC(=O)C(CCCCN)N(Cc1cccc(OCc2ccccc2)c1)Cc1cccc(OCc2ccccc2)c1 (stereo not shown) [compound 112] | 2 µM | 59% |  | EPO/EBP-Ig % inh @ 50 μM (Table 7, 50 μM): 59%; IC50 (read-out: IC50, μM (Inhibition of EPO binding to EBP-Ig), 0.5 nM [125I]EPO, concentration reducing corrected total binding to 50%): 10 µM |
| COC(=O)C(CCCCN)N(Cc1ccc(OCc2ccccc2)cc1)Cc1cccc([N+](=O)[O-])c1 (stereo not shown) [compound 114] | 10 µM |  |  | inhibition at 50 µM [1]: 37%; inhibition at 50 µM [2]: 37% |
| COC(=O)C(CCCCN)N(Cc1ccc(OCc2ccccc2)cc1)Cc1cccc(N)c1 (stereo not shown) [compound 115] |  |  |  | inhibition at 50 µM [1]: 35%; inhibition at 50 µM [2]: 35% |
| CCCCC(=O)Nc1cccc(CN(Cc2ccc(OCc3ccccc3)cc2)C(CCCCN)C(=O)OC)c1 (stereo not shown) [compound 116] |  | 32% |  | EPO/EBP-Ig % inh @ 50 μM (Table 7, 50 μM): 32% |
| COC(=O)C(CCCCN)N(Cc1ccc(OCc2ccccc2)cc1)Cc1cccc(NC(=O)c2ccc(C)cc2)c1 (stereo not shown) [compound 118] | 2 µM |  |  | IC50: 10 µM; inhibition at 50 µM [1]: 36%; inhibition at 50 µM [2]: 36% |
| COC(=O)C(CCCCN)N(Cc1ccc(OCc2ccccc2)cc1)Cc1cccc(NC(=O)C(C)C)c1 (stereo not shown) [compound 119] |  | 34% |  | EPO/EBP-Ig % inh @ 50 μM (Table 7, 50 μM): 34% |
| COC(=O)C(CCCCN)N(Cc1ccc(OCc2ccccc2)cc1)Cc1cccc(NC(=O)c2ccncc2)c1 (stereo not shown) [compound 120] |  | 35% |  | EPO/EBP-Ig % inh @ 50 μM (Table 7, 50 μM): 35% |
| COC(=O)C(CCCCN)N(Cc1ccc(OCc2ccccc2)cc1)Cc1cccc(NC(=O)c2ccc3ccccc3c2)c1 (stereo not shown) [compound 121] | 6 µM | 45% |  | EPO/EBP-Ig % inh @ 50 μM (Table 7, 50 μM): 45% |
| COC(=O)C(CCCCN)N(C/C=C/c1cccc(Oc2ccccc2)c1)Cc1cccc(Oc2ccccc2)c1 (stereo not shown) [compound 137] | 5 µM |  |  | IC50: 30 µM; inhibition at 50 µM [1]: 60% |
| COC(=O)C(CCCCN)N(C/C=C/c1cccc(Oc2ccc(C(C)(C)C)cc2)c1)Cc1cccc(OCc2ccccc2)c1 (stereo not shown) [compound 139] | 2 µM |  |  | IC50: 10 µM; inhibition at 50 µM [1]: 46% |
| COC(=O)C(CCCCNC(=O)OCc1ccccc1)N(C/C=C/c1ccccc1)C/C=C/c1ccccc1 (stereo not shown) [compound 171] |  |  | nb |  |
| O=C(NCCCCC(C(=O)O)N(C/C=C/c1ccccc1)C/C=C/c1ccccc1)OCc1ccccc1 (stereo not shown) [compound 172] |  |  | 15% |  |
| CC(C)(C)OC(=O)C(CCCCNC(=O)OCc1ccccc1)N(C/C=C/c1ccccc1)C/C=C/c1ccccc1 (stereo not shown) [compound 173] |  |  | 5% |  |
| COC(=O)C(CCCCNC(=O)OCc1ccccc1)N(C/C=C/c1ccc(OC)cc1)C/C=C/c1ccc(OC)cc1 (stereo not shown) [compound 174] |  |  | 23% |  |
| COC(=O)C(CCCCNC(=O)OCc1ccccc1)N(C/C=C/c1ccc2ccccc2c1)C/C=C/c1ccc2ccccc2c1 (stereo not shown) [compound 175] |  |  | 1% |  |
| COC(=O)C(CCCCNC(=O)OCc1ccccc1)N(C/C=C/c1cccc(Oc2ccccc2)c1)C/C=C/c1cccc(Oc2ccccc2)c1 (stereo not shown) [compound 176] |  |  | −4% |  |
| COC(=O)C(CCCCNC(=O)OC(C)(C)C)N(C/C=C/c1ccc([N+](=O)[O-])cc1)C/C=C/c1ccc([N+](=O)[O-])cc1 (stereo not shown) [compound 178] |  | 36% | 36% |  |
| CC(C)(C)OC(=O)NCCCCC(C(=O)O)N(C/C=C/c1ccc([N+](=O)[O-])cc1)C/C=C/c1ccc([N+](=O)[O-])cc1 (stereo not shown) [compound 179] |  | 30% | 30% |  |
| COC(=O)C(CCCCNC(=O)OC(C)(C)C)N(C/C=C/c1cccc(Oc2ccccc2)c1)C/C=C/c1cccc(Oc2ccccc2)c1 (stereo not shown) [compound 180] |  |  | −4% |  |
| COC(=O)C(CCCCNC(=O)OC(C)(C)C)N(C/C=C/c1cccc(Oc2ccc(C(C)(C)C)cc2)c1)C/C=C/c1cccc(Oc2ccc(C(C)(C)C)cc2)c1 (stereo not shown) [compound 181] |  |  | −9% |  |
